Results on three molecules are retold here after patent US8293495B2, “Blood-brain barrier model” (Wisconsin Alumni Research Foundation, priority 2006, dated 2012).

One data set concerns BMEC. The conditions noted are these: BMEC treated with glucocorticoid; cited from earlier work.
Data set [1] is described as follows: Fluorescein flux through BMEC monolayer co-cultured with differentiating NPC (in vitro BBB model). It counts as in vitro ADME, rat. To be noted: rat; through the in vitro model, BMEC with NPC co-culture, 1 μM apical; read-out: permeability (Pe) (converted). An excerpt:
(§1) Many methods can be used to determine BBB permeability as well as uptake and efflux rates using an in vitro model. As an example, the rates for trans-BBB transport can be used to directly determine a pseudo steady-state permeability value (Pe) which is an estimate of in vivo permeability for a particular pharmaceutical compound, protein, or drug carrier. With the assumption that the concentration in the upper fluid compartment is static, and with a correction for the resistance provided by the membrane itself, the permeability can be readily determined for each test compound. Briefly, the transcytosis rate (Q) can be divided by the concentration of material added to the apical chamber (Ca) and the area of the membrane (Am) to yield a total permeability (Pt) that includes resistances due to the monolayer and the membrane (Pt=Q/[AmCa], or using clearance volume terminology Pt is equal to the slope of the clearance volume versus time line divided by the membrane area). Subsequently, Pe can be calculated by correcting for the resistance supplied by the cell free membrane (Pm) (1/Pe=1/Pt−1/Pm) (Bickel, U. How to measure drug transport across the blood-brain barrier. NeuroRx 2005, 2, 15-26.).
(§2) The permeability was assessed by determining the flux of fluorescein through the BMEC monolayer. Fluorescein sodium salt in DMEM was added to the apical filter compartment to produce a uniform initial concentration of 1 μM. Subsequently, 200 μl were removed from the basolateral compartment after 0, 15, 30, 45, and 60 min. The fluorescence was measured with the FLx800 fluorescence reader (Bio-Tek Instruments) and the rates of fluorescein accumulation in the lower compartment used to determine the permeability as described previously (Perriere et al. 2005).

Another data set relates to BMEC monolayer. Described as above. It counts as in vitro ADME, rat.
Excerpt: as §1, §2

The next data set deals with rat BMEC. To be noted: rat BMEC co-cultured with astrocytes; cited from earlier work.
For data set [2] the following is noted: cited from earlier work.

SMILES strings stand for the structures. Structures can show the parent of a compound that is named as a salt.

For the molecule `C[C@]12C[C@H](O)[C@H]3[C@@H](CCC4=CC(=O)CC[C@@]43C)[C@@H]1CC[C@@H]2C(=O)CO` [corticosterone], in the data set on BMEC, the TEER is 168 Ω×cm^2 and the frayed junctions was 21 % frayed.

On to `C[C@]12CCC(=O)C=C1CC[C@@H]1[C@@H]2[C@@H](O)C[C@@]2(C)[C@H]1CC[C@]2(O)C(=O)CO` [hydrocortisone], for which, in the data set on BMEC, the TEER is on record as 218 Ω×cm^2 and the frayed junctions is 12 % frayed.

Consider `O=C1OC2(c3ccc(O)cc3Oc3cc(O)ccc32)c2ccccc21` [fluorescein, Fluorescein sodium salt], for which, in data set [1], the Papp A→B at 60 min, 1 μM is 5.5 ×10⁻⁶ cm/s. Also, the “reduction of monolayer permeability by NPC co-culture” value in the data set with BMEC monolayer (BMEC with differentiating NPC vs BMEC without NPC, 24 h co-culture) turned out to be 33%. The “permeability (Pe)” value with BMEC monolayer (through the in vitro model, BMEC with NPC co-culture, 1 μM apical) is 5.5 ×10⁻⁶ cm/s. In addition, the fluorescein permeability in the data set with rat BMEC was 4.5 ×10⁻⁶ cm/s. The “crossing of the BBB in vivo” value in data set [2] is on record as “does not appreciably cross the BBB”.
